Test results from US7172875B2, “Identifying inhibitors of intracellular protein fibrillization” (The Ohio State University Research Foundation, priority 2003, dated 2007).

Legend:
[1] = molecular target: T1, htau40 (Homo sapiens, UniProt P10636); details: synthetic filaments aggregated 3 h with AA; Ref. 12; cited from earlier work
T1 construct: His-tag; made in house

[2] = molecular target: T1, htau40; test: Disaggregation of preaggregated tau followed by ThS fluorescence; format: biochemical
[3] = molecular target: T2, α-synuclein (Homo sapiens, UniProt P37840); test: α-synuclein polymerization, electron microscopy; format: biochemical; details: 37° C.; standard polymerization conditions
T2 construct: His-tag; made in house
Method: (§1) α-synuclein Polymerization Assays. Under standard conditions, α-synuclein (4–70 μM) was incubated with AA or other polymerization inducers (25–3000 μM) in Assembly Buffer (10 mM HEPES, pH 7.4, 100 mM NaCl, 5 mM DTT) at 37° C. for 3–26 h, without agitation. Various inducer concentrations were prepared by serial dilution of stock solutions. Control reactions were normalized for 1:1 H2O isopropanol vehicle, which was limited to 5% in all reactions. Samples were processed for electron microscopy and fluorescence spectroscopy as described below.
Electron Microscopy. Aliquots of polymerization reactions were taken, treated with 2% glutaraldehyde (final concentration), mounted on formvar/carbon coated 300 mesh grids, and negatively stained with 2% uranyl acetate as described previously (King et al., 1999). Images were viewed in a Phillips CM 12 transmission electron microscope operated at 65 kV. Random images were captured on film at 8,000–22,000X magnification, digitized at 600 dots-per-inch resolution, and imported into Optimas 6.5.1 for quantification of filament lengths and numbers. Individual filaments were defined as any object greater than 50 nm in its long axis and were counted manually.

[4] = molecular target: T2, α-synuclein; test: α-synuclein polymerization, Thioflavin T assay; format: biochemical
Method: as §1
Thioflavin T assay. α-synuclein (4–70 μM) was incubated in Assembly Buffer in the presence of 20 μM thioflavin T, with or without assembly inducers, in 96-well plates. Aggregation was monitored by following thioflavin T fluorescence (λex=[…]; in a Flex Station plate reader (Molecular Devices, Sunnyvale, Calif.).

[5] = molecular target: T1, htau40; test: tau aggregation assay, electron microscopy quantification of filament lengths; format: biochemical; details: 10 μM concentration; data not shown
Method: Aggregation assays. Under standard conditions, htau40 (4 μM) was incubated without agitation in Assembly Buffer (10 mM HEPES, pH 7.4, 100 mM NaCl, 5 mM dithiothreitol) at 37° C. for up to 168 h in the presence or absence of fibrillization inducer (AA, alkyl sulfate detergents, or carboxylate modified polystyrene beads). All samples incubated for more than 24 h were kept under argon in parafilm-sealed tubes. Samples were processed for assay by electron microscopy as described below.
Electron Microscopy Assays. […] Random images were viewed in a Phillips CM 12 transmission electron microscope operated at 65 kV, captured on film at 8,000–100,000-fold magnification, digitized at 600 dots-per-inch resolution, and imported into Optimas 6.5.1 for quantification of filament lengths and numbers. Individual filaments (defined as any object greater than 50 nm in its long axis with both ends visible in the field of view) were counted manually. […]
[formula] where y is total filament length (50 nm cutoff) measured at time t, yo is total filament length at time zero, t50 is time to 50% maximum fibrillization, A is the maximum total filament length at equilibrium, and kapp is the apparent first order rate constant for fibril growth in units of time^−1. […]

[6] = CMC measurements for SDS (Corrin-Harkins analysis of CMC depression); format: physicochemical; details: literature values
Method: CMC values for SDS were estimated at 37° C. using N-phenyl-1-naphthylamine as described previously, except that various concentrations of protamine, histone, α-synuclein, or htau40 were included with the samples. Detergent stock solutions were prepared in 1:1 water isopropanol.
Analytical Methods. Dependence of detergent CMC on protein concentration was fit to the empirical Corrin-Harkins equation: log CMC=−kCH(log n)+bCH (1) where n is the molar concentration of protein or salt and kCH and bCH are constants. The slope of these curves, kCH, approximates the proportion of detergent micelles that are ionized.

T1 sequence (P10636 1-441 isoform P10636-8): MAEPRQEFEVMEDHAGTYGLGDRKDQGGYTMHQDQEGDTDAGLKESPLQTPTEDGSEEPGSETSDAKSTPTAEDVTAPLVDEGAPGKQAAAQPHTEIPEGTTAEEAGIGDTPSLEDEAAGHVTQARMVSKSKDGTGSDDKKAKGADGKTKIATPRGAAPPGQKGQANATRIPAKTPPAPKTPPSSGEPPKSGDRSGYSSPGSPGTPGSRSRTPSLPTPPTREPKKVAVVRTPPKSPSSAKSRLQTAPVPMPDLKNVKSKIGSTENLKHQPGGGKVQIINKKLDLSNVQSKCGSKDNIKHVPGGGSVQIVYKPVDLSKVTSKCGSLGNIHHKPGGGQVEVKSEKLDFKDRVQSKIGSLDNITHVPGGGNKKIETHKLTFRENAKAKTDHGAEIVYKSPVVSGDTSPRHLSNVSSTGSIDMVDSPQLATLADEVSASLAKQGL

CCCCC/C=C\C/C=C\C/C=C\C/C=C\CCCC(=O)O [AA, Arachidonic acid]
slope constant b of exponential filament length distribution [1]: −5.4±0.2 μm^−1 | decay slower than dilution in buffer alone ([2]; 50 μM arachidonic acid): 50 fold | first order decay rate of ThS fluorescence after 20-fold dilution ([2]; additive in Assembly Buffer: 50 μM arachidonic acid or 2 μM htau40): 0.5 h⁻¹ | induction of α-synuclein polymerization seen by electron microscopy [3]: induced

CCCCCCCCCCCCOS(=O)(=O)[O-].[Na+] [C12H25SO4Na]
threshold inducer concentration for induction of α-synuclein fibrillization ([4]; 16 h at 37° C., α-synuclein 5-30 μM): approximately 100 μM

Heparin
induction of α-synuclein polymerization seen by electron microscopy [3]: little measurable polymerization | Thioflavin T signal ([4]; heparin 25–3000 μM saccharide monomer, both forms of heparin): < 600 counts | induction of α-synuclein fibrillization (Thioflavin T fluorescence) ([4]; α-synuclein 30 μM, 16 h at 37° C.): only weakly

Phosphatidylserine
induction of α-synuclein polymerization seen by electron microscopy [3]: Abundant filaments and/or filamentous conglomerates

phosphatidic acid
induction of α-synuclein polymerization seen by electron microscopy [3]: second in potency

phosphatidylcholine
induction of α-synuclein polymerization seen by electron microscopy [3]: least efficient inducer

thioflavin S [ThS]
inhibition of tau fibrillization [5]: not inhibitory

uteroglobulin^4-14: hydrophobic undecapeptide of neutral net charge with two positive charges; literature values (PSFQRVIETLL; UniProt P11684 25-35, looked up, fragment)
potency of CMC depression relative to NaCl on a molar basis [6]: 1000 fold
